# According to US7488832B2, “Azolylacylguanidines as β-secretase inhibitors” (Wyeth, priority 2005, dated 2009):
# Target: human BACE1 (Homo sapiens, UniProt P56817)
# Assay: Fluorescent kinetic assay, human BACE1 (FRET peptide substrate WABC-6);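 also: fluorescence monitored at excitation 320 nm and emission 420 nm over 30 min, with the substrate cleavage rate taken as the linear slope of the signal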
# Assay type: biochemical
# Settings: not given
# Sequence of human BACE1 (P56817 46-501): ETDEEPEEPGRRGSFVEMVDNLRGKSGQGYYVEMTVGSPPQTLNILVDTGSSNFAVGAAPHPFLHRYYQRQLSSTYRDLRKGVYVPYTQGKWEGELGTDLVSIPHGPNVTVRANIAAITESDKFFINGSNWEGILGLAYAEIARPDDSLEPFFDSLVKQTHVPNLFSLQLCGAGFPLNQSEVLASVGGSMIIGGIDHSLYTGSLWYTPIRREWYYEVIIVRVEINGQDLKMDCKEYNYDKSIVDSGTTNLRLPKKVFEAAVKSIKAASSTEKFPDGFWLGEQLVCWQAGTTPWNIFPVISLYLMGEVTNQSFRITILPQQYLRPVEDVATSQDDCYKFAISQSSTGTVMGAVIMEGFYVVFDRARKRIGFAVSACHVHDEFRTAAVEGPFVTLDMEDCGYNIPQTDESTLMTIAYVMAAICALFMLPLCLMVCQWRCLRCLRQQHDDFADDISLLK
row,SMILES,IC50
1,N=C(NCc1cccc(N)c1)NC(=O)Cn1c(-c2ccccc2)ccc1C12CC3CC(CC(C3)C1)C2 [Example 421],0.11 to 1 µM

# Same assay, conditions: fluorescent kinetic assay, 25 μM substrate WABC-6, pH 4.5, room temperature; read-out: IC50 (μM) BACE 1
row,SMILES,IC50
1,CCC(=O)c1ccc(-c2ccc(-c3ccccc3)n2CC(=O)NC(=N)N)cc1 [Example 447],1.1 to 5 µM
2,N#CCc1ccc(-c2ccc(-c3ccccc3)n2CC(=O)NC(=N)N)cc1 [Example 451],1.1 to 5 µM
3,N=C(N)NC(=O)Cn1c(-c2ccccc2)ccc1-c1ccccc1C(F)(F)F [Example 452],1.1 to 5 µM
4,N#CCc1cccc(-c2ccc(-c3ccccc3)n2CC(=O)NC(=N)N)c1 [Example 453],1.1 to 5 µM
5,N#CCCc1ccc(-c2ccc(-c3ccccc3)n2CC(=O)NC(=N)N)cc1 [Example 454],1.1 to 5 µM
6,NC(=NC(=O)Cn1c(-c2ccccc2)ccc1-c1ccc(C(=O)NCC(F)(F)C(F)(F)F)cc1)NCCCO [Example 472],1.1 to 5 µM
7,"CCC[C@H]1CC[C@H](c2ccc(-c3ccccc3)n2CC(=O)/N=C(\N)NCCCC#N)CC1 [Example 473, N-{(1E)-amino[(3-cyanopropyl)amino]methylene}-2-[2-phenyl-5-(trans-4-propylcyclohexyl)-1H-pyrrol-1-yl]acetamide]",1.1 to 5 µM
8,"N#CCCCNC(=N)NC(=O)Cn1c(-c2ccccc2)ccc1C1CCCCC1 [Example 474, N-(3-Cyano-propyl)-N′-[2-(2-cyclohexyl-5-phenyl-pyrrol-1-yl)-acetyl]-guanidine]",1.1 to 5 µM

# More lines, now with the values ahead:
row,IC50,SMILES
1,1.1 to 5 µM,N=C(NCCCn1ccnc1)NC(=O)Cn1c(-c2ccccc2)ccc1C12CC3CC(CC(C3)C1)C2 [Example 413]
2,0.11 to 1 µM,COCCCNC(N)=NC(=O)Cn1c(-c2ccccc2)ccc1C12CC3CC(CC(C3)C1)C2 [Example 414]
3,0.11 to 1 µM,COCCNC(N)=NC(=O)Cn1c(-c2ccccc2)ccc1C12CC3CC(CC(C3)C1)C2 [Example 415]
4,0.11 to 1 µM,NC(=NC(=O)Cn1c(-c2ccccc2)ccc1C12CC3CC(CC(C3)C1)C2)NCC(F)(F)C(F)(F)F [Example 416]
5,0.11 to 1 µM,NC(=NC(=O)Cn1c(-c2ccccc2)ccc1C12CC3CC(CC(C3)C1)C2)NC1CCCCCC1 [Example 417]
6,0.11 to 1 µM,C=CCNC(=O)c1ccc(-c2ccc(-c3ccccc3)n2CC(=O)N=C(N)NCc2nnc(C)o2)cc1 [Example 423]
7,0.11 to 1 µM,C=CCNC(=O)c1ccc(-c2ccc(-c3ccccc3)n2CC(=O)N=C(N)NCc2nc(C)cs2)cc1 [Example 424]
8,0.11 to 1 µM,C=CCNC(=O)c1ccc(-c2ccc(-c3ccccc3)n2CC(=O)N=C(N)NCCc2cccs2)cc1 [Example 425]
9,0.11 to 1 µM,C=CCNC(=O)c1ccc(-c2ccc(-c3ccccc3)n2CC(=O)N=C(N)NCc2cccc(N)c2)cc1 [Example 426]
10,0.11 to 1 µM,"CCS(=O)(=O)N/C(N)=N\C(=O)Cn1c(-c2ccccc2)ccc1C12CC3CC(CC(C3)C1)C2 [Example 431, 2-[2-(1-adamantyl)-5-phenyl-1H-pyrrol-1-yl]-N-{(1Z)-amino[(ethyl-sulfonyl)amino]methylene}acetamide]"
11,0.11 to 1 µM,CCCCc1ccc(-c2ccc(-c3ccccc3)n2CC(=O)NC(=N)N)cc1 [Example 449]
12,0.11 to 1 µM,Cc1ccc(C)c(-c2ccc(-c3ccccc3)n2CC(=O)NC(=N)N)c1 [Example 450]
13,0.11 to 1 µM,"CCNC(=O)c1ccc(-c2ccc(-c3ccccc3)n2CC(=O)NC(N)=NCCCO)cc1 [Example 461, N-Ethyl-4-(1-{2-[N′-(3-hydroxy-propyl)-guanidino]-2-oxo-ethyl}-5-phenyl-1H-pyrrol-2-yl)-benzamide]"
14,0.11 to 1 µM,NC(=NC(=O)Cn1c(-c2ccccc2)ccc1-c1ccc(C(=O)NC2CC2)cc1)NCCCO [Example 462]
15,0.11 to 1 µM,C=CCNC(=O)c1ccc(-c2ccc(-c3ccccc3)n2CC(=O)N=C(N)NCCCO)cc1 [Example 463]
16,0.11 to 1 µM,NC(=NC(=O)Cn1c(-c2ccccc2)ccc1-c1ccc(C(=O)NCCO)cc1)NCCCO [Example 464]
17,0.11 to 1 µM,N#CCCNC(=O)c1ccc(-c2ccc(-c3ccccc3)n2CC(=O)N=C(N)NCCCO)cc1 [Example 465]
18,0.11 to 1 µM,CCCNC(=O)c1ccc(-c2ccc(-c3ccccc3)n2CC(=O)N=C(N)NCCCO)cc1 [Example 467]
19,0.11 to 1 µM,COCCNC(=O)c1ccc(-c2ccc(-c3ccccc3)n2CC(=O)N=C(N)NCCCO)cc1 [Example 468]
20,0.11 to 1 µM,CCC(C)NC(=O)c1ccc(-c2ccc(-c3ccccc3)n2CC(=O)N=C(N)NCCCO)cc1 (centres unmarked) [Example 469]
21,0.11 to 1 µM,C=CCN(C)C(=O)c1ccc(-c2ccc(-c3ccccc3)n2CC(=O)N=C(N)NCCCO)cc1 [Example 470]

# Test system: not given
# Assay: not given
# Settings: not given
row,SMILES,melting point
1,"NC(N)=NC(=O)Cn1c(C(=O)c2ccccc2)ccc1-c1ccccc1 [Example 455, N″-[(2-benzoyl-5-phenyl-1H-pyrrol-1-yl)acetyl]guanidine]",201 to 203 °C
2,N=C(N)NC(=O)Cn1c(C(=O)c2ccco2)ccc1-c1ccccc1 [Example 456],175 to 177 °C
3,"N=C(N)NC(=O)Cn1c(Cc2ccccc2)ccc1-c1ccccc1 [Example 458, N-[(2-benzyl-5-phenyl-1H-pyrrol-1-yl)acetyl]guanidine]",155 to 158 °C
4,"N=C(N)NC(=O)Cn1c(Cc2ccco2)ccc1-c1ccccc1 [Example 459, N-[amino(imino)methyl]-2-[2-(2-furylmethyl)-5-phenyl-1H-pyrrol-1-yl]acetamide]",80 to 82 °C
5,"N=C(N)NC(=O)Cn1c(Cc2cccs2)ccc1-c1ccccc1 [Example 460, N-[amino(imino)methyl]-2-[2-phenyl-5-(thien-2-ylmethyl)-1H-pyrrol-1-yl]acetamide]",99 to 120 °C
